The values below come from patent publication US20230159467A1, “NOVEL COMPOUNDS USEFUL IN THE TREATMENT AND/OR PREVENTION OF A DISEASE, DISORDER OR CONDITION ASSOCIATED WITH ANGIOTENSIN II” (Vicore Pharma AB, priority 2020, published 2023).

The target in series [1] is T1, CYP2C8 (Homo sapiens, UniProt P10632).
T1 sequence (P10632 1-490): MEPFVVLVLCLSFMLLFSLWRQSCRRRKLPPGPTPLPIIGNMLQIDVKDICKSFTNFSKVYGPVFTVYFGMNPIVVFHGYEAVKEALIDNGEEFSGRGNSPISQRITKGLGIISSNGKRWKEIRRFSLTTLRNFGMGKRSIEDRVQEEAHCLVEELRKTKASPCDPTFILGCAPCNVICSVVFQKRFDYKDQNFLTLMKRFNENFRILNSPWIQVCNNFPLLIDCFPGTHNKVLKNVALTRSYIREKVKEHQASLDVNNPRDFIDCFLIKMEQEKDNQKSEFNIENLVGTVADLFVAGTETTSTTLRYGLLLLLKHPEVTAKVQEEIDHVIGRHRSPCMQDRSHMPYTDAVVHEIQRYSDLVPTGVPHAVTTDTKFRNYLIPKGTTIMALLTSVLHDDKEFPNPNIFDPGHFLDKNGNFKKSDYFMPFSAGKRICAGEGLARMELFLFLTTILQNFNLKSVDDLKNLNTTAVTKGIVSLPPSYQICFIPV
Briefly: CYP450 inhibition assay, pooled human liver microsomes, amodiaquine substrate. The conditions noted are these: for CYP 450 Inhibition CYP2C8: at 10 μM; for inhibition at 10 min, 10 µM: both, human, pooled human liver microsomes, pH 7.4, probe amodiaquine. For orientation: Liver microsomes are a subcellular fraction often used to study metabolism.

A short description of series [2]: Stability in mouse liver microsomes. In kind it is in vitro ADME. Particulars: half-life. How it is done: (§1) Stability in liver microsomes. Human, mouse and rat liver microsomes were used to assess the metabolic stability for the compounds. Metabolic stability was determined in 0.5 mg/mL human, mouse or rat liver microsomes at a compound concentration of 1 μM in 100 mM potassium phosphate buffer (pH 7.4) in a total incubation volume of 500 μL by Eurofins. The assay matrix was: human liver microsomes: mixed gender and pool of 50, rat liver microsomes: male, Sprague-Dawley, pool of 100 or more and mouse liver microsomes: male,CD-1, pool of 250 or more. Final microsomal protein concentration: 0.1mg/mL. The test concentration was 0.1 μM with 0.01% DMSO, 0.25% acetonitrile and 0.25% methanol by default. […] The reaction was initiated by adding NADPH-generating system and was incubated for 0, 15, 30, 45, and 60 min. The reaction was stopped by transferring the incubation mixture to acetonitrile/methanol. Samples were then mixed and centrifuged. Four reference compounds were tested in each assay. Propranolol and imipramine are relatively stable, whereas verapamil and terfenadine are readily metabolized inhuman liver microsomes. Samples were analyzed by HPLC-MS/MS using selected reaction monitoring. The HPLC system consisted of a binary LC pump with autosampler, a C-18 column, and a gradient. Peak areas corresponding to the test compound were recorded. The compound remaining was calculated by comparing the peak area at each time point to time zero. The half-life was calculated from the slope of the initial linear range of the logarithmic curve of compound remaining (%) vs. time, assuming first order kinetics. In addition, the intrinsic clearance (Clint) was calculated.^19,20

The target of series [3] is CYP2C9 (Homo sapiens, UniProt P11712). Briefly: CYP450 inhibition assay, pooled human liver microsomes, diclofenac substrate. The conditions noted are these: for CYP 450 Inhibition CYP2C9: at 10 μM; for inhibition at 10 min, 10 µM: both, human, pooled human liver microsomes, pH 7.4, probe diclofenac.
For series [4], the target named is T2, human AT2R (Homo sapiens, UniProt P50052).
T2 construct: host or cells: HEK-293
T2 sequence (P50052 1-363): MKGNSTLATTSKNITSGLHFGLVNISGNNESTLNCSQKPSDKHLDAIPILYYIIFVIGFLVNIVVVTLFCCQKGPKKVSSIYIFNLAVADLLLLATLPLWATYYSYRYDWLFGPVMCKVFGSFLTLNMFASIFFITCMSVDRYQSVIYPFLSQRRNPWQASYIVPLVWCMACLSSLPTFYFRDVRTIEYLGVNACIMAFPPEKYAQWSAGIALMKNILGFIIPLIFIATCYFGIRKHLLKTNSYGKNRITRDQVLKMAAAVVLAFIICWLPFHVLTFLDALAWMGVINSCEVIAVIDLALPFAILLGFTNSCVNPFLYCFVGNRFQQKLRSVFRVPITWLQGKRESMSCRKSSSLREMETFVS
In kind it is binding. The conditions noted are these: HEK-293 cell membranes.

Series [5] in a line: Stability in rat liver microsomes. The series is classed as in vitro ADME. Particulars: half-life. How it is done: as §1
Series [6] has as its target CYP2C19 (Homo sapiens, UniProt P33261). The experiment in a line: CYP450 inhibition assay, pooled human liver microsomes, omeprazole substrate. Particulars: for CYP 450 Inhibition CYP2C19: at 10 μM; for inhibition at 10 min, 10 µM: both, human, pooled human liver microsomes, pH 7.4, probe omeprazole.
Series [7] has as its target T3, CYP2B6 (Homo sapiens, UniProt P20813).
T3 sequence (P20813 1-491): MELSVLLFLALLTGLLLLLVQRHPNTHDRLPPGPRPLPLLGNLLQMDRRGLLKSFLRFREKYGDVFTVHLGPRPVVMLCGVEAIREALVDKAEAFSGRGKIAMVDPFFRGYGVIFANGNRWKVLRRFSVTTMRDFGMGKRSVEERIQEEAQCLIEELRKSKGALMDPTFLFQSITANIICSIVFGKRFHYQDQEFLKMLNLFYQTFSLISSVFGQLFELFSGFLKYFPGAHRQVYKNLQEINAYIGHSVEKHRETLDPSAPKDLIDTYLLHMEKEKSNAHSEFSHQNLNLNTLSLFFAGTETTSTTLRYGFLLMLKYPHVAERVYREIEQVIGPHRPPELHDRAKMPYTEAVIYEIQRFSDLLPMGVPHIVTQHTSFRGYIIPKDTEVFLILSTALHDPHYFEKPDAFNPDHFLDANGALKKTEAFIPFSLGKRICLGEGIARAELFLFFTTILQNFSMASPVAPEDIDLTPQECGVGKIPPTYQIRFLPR
Briefly: CYP450 inhibition assay, pooled human liver microsomes, bupropion substrate. Particulars: for CYP 450 Inhibition CYP2B6: at 10 μM; for inhibition at 10 min, 10 µM: both, human, pooled human liver microsomes, pH 7.4, probe bupropion.

In series [8] the target is T4, human AT1R (Homo sapiens, UniProt P30556).
T4 construct: host or cells: HEK-293
T4 sequence (P30556 1-359): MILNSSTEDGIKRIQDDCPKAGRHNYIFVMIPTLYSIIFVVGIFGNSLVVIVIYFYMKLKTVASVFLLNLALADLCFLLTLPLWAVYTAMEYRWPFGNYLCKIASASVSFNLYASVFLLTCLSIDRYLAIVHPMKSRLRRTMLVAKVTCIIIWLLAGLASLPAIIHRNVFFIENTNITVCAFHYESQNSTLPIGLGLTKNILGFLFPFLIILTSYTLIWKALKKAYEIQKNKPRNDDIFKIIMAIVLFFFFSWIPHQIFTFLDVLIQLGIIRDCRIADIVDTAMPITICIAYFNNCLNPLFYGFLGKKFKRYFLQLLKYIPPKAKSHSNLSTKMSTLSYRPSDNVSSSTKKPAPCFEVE
In kind it is binding. The conditions noted are these: HEK-293 cell membranes.

In series [9] the test system is CYP3A. Briefly: CYP450 inhibition assay, pooled human liver microsomes, testosterone substrate. Particulars: both, human, pooled human liver microsomes, pH 7.4, probe testosterone, CYP 450 Inhibition CYP3A testosterone, at 10 μM.
Series [10] addresses CYP2D6 (Homo sapiens, UniProt P10635). The experiment in a line: CYP450 inhibition assay, pooled human liver microsomes, dextromethorphan substrate. The conditions noted are these: for CYP 450 Inhibition CYP2D6: at 10 μM; for inhibition at 10 min, 10 µM: both, human, pooled human liver microsomes, pH 7.4, probe dextromethorphan.

CYP2D6, sequence (P10635 whole entry): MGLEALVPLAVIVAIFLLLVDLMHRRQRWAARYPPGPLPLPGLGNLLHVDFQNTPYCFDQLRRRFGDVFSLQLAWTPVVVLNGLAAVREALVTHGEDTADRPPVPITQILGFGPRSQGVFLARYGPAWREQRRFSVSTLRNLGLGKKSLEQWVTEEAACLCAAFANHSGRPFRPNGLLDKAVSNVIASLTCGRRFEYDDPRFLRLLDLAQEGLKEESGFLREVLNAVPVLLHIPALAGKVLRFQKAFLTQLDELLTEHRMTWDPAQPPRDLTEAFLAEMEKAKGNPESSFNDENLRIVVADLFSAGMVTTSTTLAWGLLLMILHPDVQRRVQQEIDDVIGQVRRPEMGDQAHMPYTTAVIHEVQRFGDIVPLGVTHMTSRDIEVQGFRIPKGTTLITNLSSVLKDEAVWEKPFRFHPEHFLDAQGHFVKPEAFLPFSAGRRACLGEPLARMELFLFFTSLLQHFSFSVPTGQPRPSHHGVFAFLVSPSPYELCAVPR
CYP2C9, sequence (P11712 whole entry): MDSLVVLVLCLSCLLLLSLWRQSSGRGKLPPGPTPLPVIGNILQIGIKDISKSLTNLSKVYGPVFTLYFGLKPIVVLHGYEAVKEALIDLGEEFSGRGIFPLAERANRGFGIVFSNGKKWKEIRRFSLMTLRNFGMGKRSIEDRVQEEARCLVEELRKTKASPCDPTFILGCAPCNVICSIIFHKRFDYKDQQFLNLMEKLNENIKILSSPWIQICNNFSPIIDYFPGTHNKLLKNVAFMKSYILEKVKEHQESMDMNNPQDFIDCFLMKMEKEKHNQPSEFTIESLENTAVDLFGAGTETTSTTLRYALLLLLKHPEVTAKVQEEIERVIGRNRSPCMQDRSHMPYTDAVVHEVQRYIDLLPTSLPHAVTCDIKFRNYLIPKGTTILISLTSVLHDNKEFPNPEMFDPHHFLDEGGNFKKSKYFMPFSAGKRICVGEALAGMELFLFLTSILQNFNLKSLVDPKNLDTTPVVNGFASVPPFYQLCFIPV
CYP2C19, sequence (P33261 whole entry): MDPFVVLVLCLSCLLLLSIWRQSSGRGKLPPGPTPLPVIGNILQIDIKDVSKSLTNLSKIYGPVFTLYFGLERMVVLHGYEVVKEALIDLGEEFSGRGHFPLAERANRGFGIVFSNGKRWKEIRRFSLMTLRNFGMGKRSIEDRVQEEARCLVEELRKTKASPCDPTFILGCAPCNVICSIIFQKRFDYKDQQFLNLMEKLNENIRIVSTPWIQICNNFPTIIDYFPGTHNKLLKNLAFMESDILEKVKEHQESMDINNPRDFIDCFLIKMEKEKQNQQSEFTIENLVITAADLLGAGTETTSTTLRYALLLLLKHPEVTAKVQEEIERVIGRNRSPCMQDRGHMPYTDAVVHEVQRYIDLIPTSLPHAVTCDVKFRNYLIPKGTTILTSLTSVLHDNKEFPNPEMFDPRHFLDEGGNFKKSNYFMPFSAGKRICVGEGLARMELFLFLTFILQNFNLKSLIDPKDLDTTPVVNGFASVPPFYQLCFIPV

`COC(=O)NS(=O)(=O)c1sc(CC(C)C)nc1-c1ccc(Cn2ccnc2C(C)(C)C)cc1` [Example 3, Methyl ((4-(4-((2-(tert-butyl)-1H-imidazol-1-yl)methyl)phenyl)-2-isobutylthiazol-5-yl)sulfonyl) carbamate]: the “CYP 450 Inhibition CYP2C8” value in series [1] is listed as 26%. For the same molecule, the “Stability in liver microsomes MLM” value in [2] is on record as >60 min. In addition, the “CYP 450 Inhibition CYP2C9” value in series [3] was 23%. In addition, the Ki was 29 nM in series [4] and ~1000 nM in [8]. In [5], the “Stability in liver microsomes RLM” value is given as >60 min. In series [6], the “CYP 450 Inhibition CYP2C19” value worked out at 38%. Moreover, the “CYP 450 Inhibition CYP2B6” value in [7] is reported as 24%. Further, the inhibition at 10 min, 10 µM in [9] worked out at 2.7%. For the same molecule, the “CYP 450 Inhibition CYP2D6” value in [10] is 12%.

Regarding `COC(=O)NS(=O)(=O)c1ccc(CC(C)C)cc1-c1ccc(Cn2ccnc2C(C)(C)C)cc1` [Example 1A, Methyl ((4′-((2-(tert-butyl)-1H-imidazol-1-yl)methyl)-5-isobutyl-[1,1′-biphenyl]-2-yl)sulfonyl)carbamate], the inhibition at 10 min, 10 µM in [1] was 67%; in series [3], 37%; in series [6] it was 38%; in [7] it was 18%; in series [9], 14%; in series [10], 9%. Moreover, the “Stability in liver microsomes MLM” value in series [2] was >60 min. Further, the Ki in [4] was 1.1 nM; in [8], ~1000 nM. For the same molecule, the “Stability in liver microsomes RLM” value in series [5] is >60 min.

Consider `COC(=O)[N-]S(=O)(=O)c1ccc(CC(C)C)cc1-c1ccc(Cn2ccnc2C(C)(C)O)cc1.[K+]` [Example 8B, Potassium ((4′-((2-(2-hydroxypropan-2-yl)-1H-imidazol-1-yl)methyl)-5-isobutyl-[1,1′-biphenyl]-2-yl)sulfonyl)(methoxycarbonyl)amide], for which the inhibition at 10 min, 10 µM is 64% in series [1]; 92% in [3]; 45% in series [6]; 28% in [7]; 10.7% in [9]; 2.5% in series [10]. For the same molecule, in series [2], the “Stability in liver microsomes MLM” value is on record as >60 min. In addition, the Ki is 3.2 nM in series [4] and ~1000 nM in series [8]. Further, the “Stability in liver microsomes RLM” value in series [5] was 41 min.

As to `CCCCOC(=O)NS(=O)(=O)c1sc(CC(C)C)nc1-c1ccc(Cn2ccnc2C(C)(C)C)cc1` [Example 4, Butyl ((4-(4-((2-(tert-butyl)-1H-imidazol-1-yl)methyl)phenyl)-2-isobutylthiazol-5-yl)sulfonyl) carbamate], in series [1], the “CYP 450 Inhibition CYP2C8” value stood at 70%. Moreover, the “Stability in liver microsomes MLM” value in series [2] is 7 min. In addition, in series [3], the “CYP 450 Inhibition CYP2C9” value is on record as 68%. The figures for the Ki in [4] and in [8] were 18 nM and ~1000 nM, respectively. In series [5], the “Stability in liver microsomes RLM” value is on record as 12 min. In series [6], the “CYP 450 Inhibition CYP2C19” value was 66%. In addition, the “CYP 450 Inhibition CYP2B6” value in series [7] stood at 29%. For the same molecule, in [9], the inhibition at 10 min, 10 µM stood at 7.5%. Moreover, the “CYP 450 Inhibition CYP2D6” value in [10] is 12%.

With `CCCCOC(=O)[N-]S(=O)(=O)c1sc(CC(C)C)cc1-c1ccc(Cn2ccnc2C(C)(C)C)cc1.[K+]` [Example 11B, Potassium (butoxycarbonyl)((3-(4-((2-(tert-butyl)-1H-imidazol-1-yl)methyl)phenyl)-5-isobutylthiophen-2-yl)sulfonyl)amide], the inhibition at 10 min, 10 µM came to 81% in series [1]; 88% in series [3]; 66% in series [6]; 51% in series [7]; 21% in series [9]; 14% in series [10]. For the same molecule, the “Stability in liver microsomes MLM” value in series [2] is listed as 10 min. Also, the inhibition constant Ki in series [4] is 6.6 nM; in series [8], ~1000 nM. In addition, the “Stability in liver microsomes RLM” value in [5] is reported as 18 min.

For orientation: Ki means a dissociation constant, usually derived from enzyme kinetics or from competition with a known ligand. A high value points to a looser hold on the target. The inhibition is the percentage by which the read-out fell short of the control. Higher therefore signals a response far below the control.
